Measurements reported in PubChem BioAssay AID1918943 (Molecular Pharmacology Branch, DTP, NCI, 2023).
pIC50: −log10 of the molar value. Where “and” joins values, the source holds several entries; their conditions need not be identical. Identical values can stand only once.

Tested on: 855422-203-R-J1-PDC complex spheroid viability
Assay: Anticancer human tumor 855422-203-R-J1-PDC patient-derived bladder carcinoma cell line growth inhibition
Conditions: for viability, T/C: stronger effect = lower value; active = viability on the fitted dose curve at most 10% of control; inactive = the rest
Excerpt: Multicellular complex tumor spheroid response to LSD1 Inhibitor Iadademstat in combination with a variety of drugs and investigational agents in selected tumor cell lines
The current study was undertaken to assess response to LSD1 inhibitors in combination with standard-of-care drugs and investigational agents in solid tumor complex spheroid models as well as in the K-562 leukemia. Complex spheroids include a stromal component modeled by human endothelial cells (HUVEC) and fibroblasts modeled by human mesenchymal stem cells (MSCs). The concentration ranges selected for each drug and investigational agent were based upon clinically achievable concentrations if the clinical Cmax of the agent was known.
Compounds. The drugs and investigational agents used in this study are listed on Table 1. All of the agents used, including staurosporine (NSC755774) and gemcitabine (NSC613327), were obtained from the Developmental Therapeutics Program, NCI. FDA-approved anticancer drugs are available from the NCI at http://dtp.nci.nih.gov/branches/dscb/oncology_drugset_explanation.html. Drugs and investigational agents were >95% pure by proton nuclear magnetic resonance (NMR) and liquid chromatography/mass spectrometry (LC/MS). Stock solutions were prepared at 400x in DMSO, stored at -70 degrees C, and diluted in fresh medium prior to their use. The final concentration of DMSO in cell culture wells never exceeded 0.25% (v/v). The FDA-approved anticancer drug set is available from the Developmental Therapeutics Program at https://dtp.cancer.gov/organization/dscb/obtaining/available_plates.htm. All drugs and investigational agents were tested over a range starting from a high concentration at or near the clinical Cmax and decreasing in half-log increments. If the clinical Cmax for an agent had not been determined, the highest concentration tested was 10 microM.
Cell Lines. The patient-derived cancer cell (PDC) lines: 292921-168-R-J2-PDC, K24384-001-R-PDC, and 521955-158-R2-J5-PDC pancreatic carcinomas, 556581-035-R-J1 ovarian carcinoma, 324938-238-R-J1-PDC, 855422-203-R-J1-PDC and 883617-216-R-J1-PDC urothelial bladder carcinomas, 743489-274-T-PDC renal cell carcinoma, 138582-R-J1 Merkel cell tumor, K60290-347-R-J1 and K57222-313-R-J1-PDC glioblastomas, 653999-131-R-J2-PDC, LG0703-F948-PDC, and 349418-098-R-PDC non-small cell lung carcinomas, 885512-296-R-J2-PDC, 171881-019-R-J1-PDC breast carcinomas and 186277-243-T-J2-PDC and 233499-124-R-J2-PDC colon carcinomas were obtained from the NCI Patient-Derived Models Repository (PDMR, https://pdmr.cancer.gov). The established cell lines NCI/ADR-RES (RRID:CVCL_14520 and OVCAR-5 (RRID:CVCL_1628) ovarian carcinomas, 786-O (RRID:CVCL_1051) and A498 (RRID:CVCL_A498) renal cell carcinoma, NCI-H211 (ATCC, cat. CRL-5824; RRID:CVCL_1529), NCI-H196 (ATCC, cat. CRL-5823, RRID:CVCL_1509), SW 1271 (ATCC, cat. CRL-2177, RRID:CVCL_1716) and NCI-H1876 (ATCC, cat. CRL-5902, RRID:CVCL_1503) small cell lung carcinomas, MDA-MB-231 (RRID:CVCL_0062) and MDA-MB-468 (RRID:CVCL_0419)breast carcinomas (10-12). Pooled donor human umbilical vein endothelial cells (HUVEC, Lonza, cat. CC-2519) and human mesenchymal stem cells (hMSC, Lonza, cat. PT-2501) were purchased from Lonza (Walkersville, MD).
Cell Culture. All cells were maintained in an incubator at 37 degrees C and 5% CO2 with 95% humidity. The PDC lines were cultured according to standard operating procedures established by the NCI PDMR (https://pdmr.cancer.gov). Briefly all PDCs were thawed and cultured in Matrigel-coated flasks prepared with a working solution of 1X Ham's F-12 nutrient mix, without supplementation (Invitrogen, Waltham, MA, cat. 11765054), 100 U/mL penicillin-streptomycin (Invitrogen, cat. 15140122), and 2.5% Matrigel (Corning Inc., Corning, NY, cat. 354248) for the first three passages. […]
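Note: drug exposure lasted 7 days starting on day 3 after seeding.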
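Throughout, for viability, T/C: luminescence viability as percent of DMSO vehicle wells = 100%.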

CC1COCCN1c1cc(-c2ccnn2C)c2ccnc(-c3ccn[nH]3)c2n1 (centres undefined) + NC1CCC(NC2CC2c2ccccc2)CC1
inactive: viability, T/C (second compound 0.1 µM, first compound 0.00316 µM) 95.1% | viability, T/C (second compound 0.1 µM, first compound 0.01 µM) 83.1% | viability, T/C (second compound 0.1 µM, first compound 0.0316 µM) 86.5% | viability, T/C (second compound 0.1 µM, first compound 0.1 µM) 59.5% | viability, T/C (second compound 0.1 µM, first compound 0.316 µM) 41.5% | viability, T/C (second compound 0.1 µM, first compound 1 µM) 33% | viability, T/C (second compound 0.316 µM, first compound 0.00316 µM) 91.8% | viability, T/C (second compound 0.316 µM, first compound 0.01 µM) 78.9% | viability, T/C (second compound 0.316 µM, first compound 0.0316 µM) 90.3% | viability, T/C (second compound 0.316 µM, first compound 0.1 µM) 60% | viability, T/C (second compound 0.316 µM, first compound 0.316 µM) 39.5% | viability, T/C (second compound 0.316 µM, first compound 1 µM) 33% | viability, T/C (second compound 1 µM, first compound 0.00316 µM) 85% | viability, T/C (second compound 1 µM, first compound 0.01 µM) 79.7% | viability, T/C (second compound 1 µM, first compound 0.0316 µM) 96.4% | viability, T/C (second compound 1 µM, first compound 0.1 µM) 63.8% | viability, T/C (second compound 1 µM, first compound 0.316 µM) 38.7% | viability, T/C (second compound 1 µM, first compound 1 µM) 34% | viability, T/C (second compound 3.16 µM, first compound 0.00316 µM) 87.4% | viability, T/C (second compound 3.16 µM, first compound 0.01 µM) 83.5% | viability, T/C (second compound 3.16 µM, first compound 0.0316 µM) 87.4% | viability, T/C (second compound 3.16 µM, first compound 0.1 µM) 49.9% | viability, T/C (second compound 3.16 µM, first compound 0.316 µM) 32.5% | viability, T/C (second compound 3.16 µM, first compound 1 µM) 27.2% | viability, T/C (second compound 10 µM, first compound 0.00316 µM) 88% | viability, T/C (second compound 10 µM, first compound 0.01 µM) 81.1% | viability, T/C (second compound 10 µM, first compound 0.0316 µM) 84% | viability, T/C (second compound 10 µM, first compound 0.1 µM) 44.9% | viability, T/C (second compound 10 µM, first compound 0.316 µM) 33.2% | viability, T/C (second compound 10 µM, first compound 1 µM) 31.7%
6.74: pIC50 (curve of first compound, second compound 0.1 µM)
7.00: pIC50 (curve of first compound, second compound 3.16 µM)
6.75: pIC50 (curve of first compound, second compound 1 µM)
6.79: pIC50 (curve of first compound, second compound 0.316 µM)
7.06: pIC50 (curve of first compound, second compound 10 µM)

CC(C)CC(NC(=O)C(Cc1ccccc1)NC(=O)c1cnccn1)B(O)O (centres undefined)
inactive: viability, T/C (compound 0.000316 µM) 90.9% and 115%
9.27 and 9.21: pIC50 (curve of compound)
active: viability, T/C (compound 0.001 µM) 2.15% and 1.03% | viability, T/C (compound 0.00316 µM) 0.11% and 0.13% | viability, T/C (compound 0.01 µM) 0.1% and 0.12% | viability, T/C (compound 0.0316 µM) 0.09% and 0.13% | viability, T/C (compound 0.1 µM) 0.14% and 0.2%

COc1cc(Nc2ncc3c(n2)-c2ccc(Cl)cc2C(c2c(F)cccc2OC)=NC3)ccc1C(=O)O
< 6.00: pIC50 (curve of compound)
inactive: viability, T/C (compound 0.00316 µM) 95.3% and 91.3% | viability, T/C (compound 0.01 µM) 96.3% and 104% | viability, T/C (compound 0.0316 µM) 80.6% and 79.7% | viability, T/C (compound 0.1 µM) 79.5% and 71.7% | viability, T/C (compound 0.316 µM) 62.2% and 59.5% | viability, T/C (compound 1 µM) 63.8% and 64.5%
